These results are taken from paper PMC5431435, “A short artificial antimicrobial peptide shows potential to prevent or treat bone infections” (Scientific Reports, 2017).

The test system of data set [1] is human primary osteoblast-like cells. The data set is classed as cell-based. How it is done:
(§1) (1) For the cytotoxicity test, 1 × 10^4 cells were seeded in 48-well plates with cultivation medium (CM) DMEM/Ham’s F-12 (D/H; Biochrom, Germany) + 10% fetal calf serum (FCS; Biochrom, Germany) + 1% penicillin/streptomycin (P/S; Biochrom, Germany) + 0.05 mM L-ascorbic-2 phosphate (L-Asc) + 0.05 mM β-glycerolphosphate (β-Glyc) and incubated overnight at 37 °C, 5% CO2 and 95% relative humidity. After adding the AMPs (3–542 µg/ml - depending on the AMP) or gentamicin (8–1024 µg/ml) in CM with 1% FCS, without Pen/Strep, cells were cultured for three days. Cell viability was determined with an AlamarBlue® assay before adding the AMPs and after 3 days. Alkaline phosphatase activity was measured on day 3.

The test system is the same in data set [2]. The data set is classed as cell-based. Here is the method: as §1
Alamar Blue® (Biozol, Germany) was done according to the manufacturer’s instruction.
This is another data set of the same source.

Another data set relates to S. aureus MRSA. The experiment in a line: Broth microdilution MIC and plating MBC, clinical isolate. The data set is classed as cell-based. To be noted: Staphylococcus aureus, MH++ (with cations), n = 4–8. The source says:
(§2) The strains Escherichia coli (ATCC 25922), Enterococcus faecalis (ATCC 29212), Pseudomonas aeruginosa (ATCC 27853), Staphylococcus aureus (ATCC 29213) were used. In addition, following clinical isolates were used: Staphylococcus epidermidis (PIA 8400, isolated from blood cultures[48]), and two Staphylococcus aureus (MRSA and MSSA, both isolated from osteosyntheses material, kindly provided by Andrej Trampuz, Charité).
(§3) To determine the minimal inhibitory concentration (MIC), classical broth microdilution method was performed after protocols from Wiegand et al.[15]. The influence of cations was analyzed by using cation adjusted Mueller-Hinton bouillon II with 20–25 mg/l Ca^2+ and 10–12.5 mg/l Mg^2+ (MH^++; BBL, Germany) or Mueller-Hinton bouillon without cations (MH^−; Merck, Germany) (n = 4–8).
(§4) The maximal concentration of the AMPs was between 200–271 µg/ml. The differences in the AMP concentration are due to the purity of the peptides (absorption coefficient from 5.19 to 9.36).
(In general: Broth dilution looks for growth in wells or tubes with falling amounts of substance.)

Another data set deals with S. aureus MSSA. The data set is described as above. As to conditions: Staphylococcus aureus. Type of data set: cell-based.
Text: as §2, §3, §4

Another data set concerns S. aureus (ATCC 29213). In words: Zone of inhibition test of PDLLA-coated titanium wires. The data set is classed as cell-based, Staphylococcus aureus. As to conditions: 10% w/w in poly(D,L-lactide) coating, n = 3, mean with standard deviation; day not given. Here is the method:
Titanium wires (diameter 1 mm, Synthes, USA) were coated with Poly(D,L-lactide) (PDLLA, Boehringer Ingelheim, Germany) and incorporated AMP2 at three different concentrations: 10% w/w, 20% w/w, or 30% w/w. Gentamicin/PDLLA (10% w/w) or PDLLA coated wires served as control. Briefly, 100 mg PDLLA was solved in 1.5 ml ethyl acetate and the wires were coated in a dipping procedure. Details of the coating were described previously. Three nails of each group were placed on Mueller-Hinton agar plates plated with S. aureus (ATCC 29213) and the zone of inhibition (ZOI) was quantified after 1, 3, 7, and 14 days using ImageJ software.

The next data set deals with planktonic S. aureus. In words: MIC by isothermal microcalorimetry, planktonic bacteria. The data set is classed as cell-based, Staphylococcus aureus. To be noted: Staphylococcus aureus; MH++, heat flow 24 hours, n = 3; read-out: MIC (calorimetry). Here is the method:
Mueller-Hinton II bouillon with adjusted cations (MH^++; BBL, Germany), Mueller-Hinton bouillon with low cations (MH^+; with 3-4 mg/l Ca^2+ and 5-6 mg/l Mg^2+; Oxoid, Germany) and Mueller-Hinton bouillon without cations (MH^-; Merck, Germany). AMP2 concentrations of 2-33 μg/ml were tested with the three different bouillons and gentamicin concentrations of 0.125-2 μg/ml were analyzed with MH^++. Staphylococcus aureus (ATCC 29213, 300 μl with 10^5 cfu/ml) was added to each microcalorimetry glass ampoule (Waters; […] The ampoules were hermetically sealed and heat flow (W) was measured for 24 hours in the calorimeter TAM III (TA Instruments, USA). […] ROBU […], Germany) in MH^++ bouillon at 37 °C in an aerobe atmosphere for 24 hours. […] Beads were washed again and added to the glass ampoule with fresh MH^++ bouillon. The total heat (J) was measured for 48 hours in the calorimeter. A concentration, which inhibits minimum 90% of biofilm, can be defined as the minimal biofilm inhibitory concentration (MICB). All samples were tested with n = 6.

A further data set relates to E. coli ATCC 25922. The experiment in a line: Broth microdilution MIC and plating MBC. The data set is classed as cell-based. As to conditions: Escherichia coli, ATCC25922. Here is the method:
as §3, §4

The next data set concerns E. faecalis ATCC 29212. The experiment in a line: Broth microdilution MIC and plating MBC. Type of data set: cell-based. As to conditions: Enterococcus faecalis, ATCC29212, MH++ (with cations), n = 4–8. How it is done:
as §3, §4

Another data set concerns S. epidermidis PIA 8400. The experiment in a line: Broth microdilution MIC and plating MBC. The data set is classed as cell-based. As to conditions: Staphylococcus epidermidis; for MIC: 1–5 × 10^5 cfu/ml, 37 °C, 18–24 h; for MBC: plated on Columbia-agar overnight 37 °C. How it is done:
as §3, §4

The subject of a further data set is S. aureus ATCC 29213. In words: Broth microdilution MIC and plating MBC. Type of data set: cell-based. As to conditions: Staphylococcus aureus. How it is done:
as §3, §4

The subject of another data set is P. aeruginosa ATCC 27853. In words: Broth microdilution MIC and plating MBC. Type of data set: cell-based. To be noted: Pseudomonas aeruginosa; for MIC: 37 °C, 18–24 h. Here is the method: as §3, §4
The next data set concerns S. aureus biofilm. In words: Biofilm assay by microcalorimetry and plating (MBCB). Type of data set: cell-based, Staphylococcus aureus. To be noted: 128 µg/ml daptomycin, calorimetry and plating (data not shown). How it is done:
To confirm MIC of the AMP2 by isothermal microcalorimetry, three different bouillons were tested: Mueller-Hinton II bouillon with adjusted cations (MH^++; BBL, Germany), Mueller-Hinton bouillon with low cations (MH^+; with 3–4 mg/l Ca^2+ and 5–6 mg/l Mg^2+; Oxoid, Germany) and Mueller-Hinton bouillon without cations (MH^−; Merck, Germany). AMP2 concentrations of 2–33 µg/ml were tested with the three different bouillons and gentamicin concentrations of 0.125–2 µg/ml were analyzed with MH^++. Staphylococcus aureus (ATCC 29213, 300 µl with 10^5 cfu/ml) was added to each microcalorimetry glass ampoule (Waters; Germany) containing 3.7 ml of AMP or gentamicin solution of (n = 3). The ampoules were hermetically sealed and heat flow (W) was measured for 24 hours in the calorimeter TAM III (TA Instruments, USA). For the biofilm assay, S. aureus biofilm was grown on glass beads (4 mm diameter, 60 µm pores; ROBU Glasfilter-Geräte, Germany) in MH^++ bouillon at 37 °C in an aerobe atmosphere for 24 hours. After washing with sodium chloride, beads were incubated with AMP2 (133, 267, 533 µg/ml) or daptomycin (128 µg/ml) in MH^++ bouillon for another 24 hours at 37 °C. Beads were washed again and added to the glass ampoule with fresh MH^++ bouillon. The total heat (J) was measured for 48 hours in the calorimeter. A concentration, which inhibits minimum 90% of biofilm, can be defined as the minimal biofilm inhibitory concentration (MICB). All samples were tested with n = 6.
Furthermore, the MBC for biofilms (MBCB) where 99.9% of all bacteria are killed was determined. After measurement, bouillon and glass beads were plated on CA plates and incubated for 24 hours at 37 °C in an aerobe atmosphere.

For data set [3], the system named is S. aureus internalized in human primary osteoblast-like cells. The experiment in a line: Effect against internalized bacteria. The data set is classed as cell-based, Staphylococcus aureus. As to conditions: 7.5 μg/ml, n = 7. How it is done: Human primary osteoblast-like cells were cultivated in 24-well plates with cultivation medium until they reached a minimum confluence of 80%. For the experiment, cells were washed and S. aureus (ATCC 29213) in cultivation medium added (~2 × 10^7 cfu/ml). After an incubation of 45 minutes, extracellular bacteria were killed using 200 µg/ml gentamicin dissolved in CM with 10% FCS, without P/S. After 1 hour incubation, gentamicin solution was removed, cells washed three times and AMP2 (33 and 67 µg/ml) in CM with only 1% FCS + no P/S added for 4 and 24 hours. As reference, 7.5 µg/ml rifampicin was used. All incubation steps were done in an incubator with 37 °C, 95% humidity and 5% CO2. For determination of the internalized bacteria, cells were lysed and the supernatant plated on CA plates. Experiment were done with n = 7.

[4] abbreviates: ATCC27853, MH++ (with cations), n = 4–8.
Where [5] appears, read: ATCC27853, MH− (without cations), n = 4.

≈ marks a conversion by molar mass, not a printed value. Bounds are passed on as bounds.

One may read the MIC as the lowest concentration that inhibits growth of the organism. By MBC is commonly meant the smallest concentration meeting the test's criterion for killing. Read a high MBC as less potent killing.

In the case of “WRKFWKYLK [AMP5, 9mer cationic antimicrobial peptide … from an optimized peptide library]”, the “concentrations with significant inhibition of alkaline phosphatase activity compared to the control group” value in [1] is no less than 63 µg/mL. Also, in data set [2], the “concentrations with no negative effect on cell viability” value (from here on “concentrations with no negative effect”) is less than 63 µg/mL and the “concentrations with significant inhibition of viability compared to the control group” value is no less than 63 µg/mL.
For the compound “RRRIKIRWY [AMP4, 9mer cationic antimicrobial peptide … from an optimized peptide library]”, in data set [2], the “concentrations with no negative effect” value is less than 251 µg/mL and the “concentrations with significant inhibition of viability compared to the control group” value is no less than 251 µg/mL.
Regarding “YRLRVKWKW [AMP1, 9mer cationic antimicrobial peptide … from an optimized peptide library]”, the “concentrations with significant inhibition of alkaline phosphatase activity compared to the control group” value in data set [1] is recorded as “all concentrations”. Besides, in [2], the “concentrations with no negative effect” value was less than 100 µg/mL and the “concentrations with significant inhibition of viability compared to the control group” value was no less than 100 µg/mL.
Regarding “RTKKWIVWI [AMP3, 9mer cationic antimicrobial peptide … from an optimized peptide library]”, in data set [2], the “concentrations with no negative effect” value is less than 68 µg/mL and the “concentrations with significant inhibition of viability compared to the control group” value is no less than 68 µg/mL.
Turning to `CNC(C)C1CCC(N)C(OC2C(N)CC(N)C(OC3OCC(C)(O)C(NC)C3O)C2O)O1` (centres unmarked) [gentamicin], the minimum inhibitory concentration (MIC) was greater than 32 µg/mL in the data set with S. aureus MRSA; 0.125 µg/mL (≈ 0.262 µM) in the data set with S. aureus MSSA (MH++ (with cations), n = 4–8); 0.25 µg/mL (≈ 0.523 µM) against S. aureus MSSA (MH− (without cations), n = 4); 1 µg/mL (≈ 2.09 µM) with planktonic S. aureus; 1 µg/mL (≈ 2.09 µM) in the data set with E. coli ATCC 25922 (MH− (without cations), 37 °C, 18–24 h, n = 4); 16 µg/mL (≈ 33.5 µM) against E. faecalis ATCC 29212 (37 °C, 5% CO2, 18–24 h). The minimal inhibitory concentration (MIC) turned out to be 0.25 µg/mL (≈ 0.523 µM) in the data set with S. epidermidis PIA 8400 (PIA8400, MH++ (cation adjusted Mueller-Hinton bouillon II), n = 4–8); 0.125 µg/mL (≈ 0.262 µM) against S. epidermidis PIA 8400 (PIA8400, MH− (Mueller-Hinton bouillon without cations), n = 4); 0.5 µg/mL (≈ 1.05 µM) in the data set on S. aureus ATCC 29213 (ATCC29213, MH++ (with cations), 37 °C, 18–24 h, n = 4–8); 1 µg/mL (≈ 2.09 µM) with P. aeruginosa ATCC 27853 (setting [4]); 0.25 µg/mL (≈ 0.523 µM) with P. aeruginosa ATCC 27853 (setting [5]). The MBC with S. aureus MSSA (MH++ (with cations), n = 4–8) amounted to 0.125 µg/mL (≈ 0.262 µM); in the data set on S. aureus MSSA (MH− (without cations), n = 4) it was 1 µg/mL (≈ 2.09 µM); against E. coli ATCC 25922 (MH++ (with cations), n = 4–8), 2 µg/mL (≈ 4.19 µM); against E. faecalis ATCC 29212, 32 µg/mL (≈ 67 µM); against S. epidermidis PIA 8400 (PIA8400, MH++ (with cations), n = 4–8), 1 µg/mL (≈ 2.09 µM); in the data set on S. epidermidis PIA 8400 (PIA8400, MH− (without cations), n = 4), 0.25 µg/mL (≈ 0.523 µM). Moreover, the MBC was 0.5 µg/mL (≈ 1.05 µM) in the data set on S. aureus ATCC 29213 (ATCC29213, MH++ (with cations), n = 4–8); 1 µg/mL (≈ 2.09 µM) against S. aureus ATCC 29213 (ATCC29213, MH− (without cations), n = 4); 4 µg/mL (≈ 8.38 µM) in the data set on P. aeruginosa ATCC 27853 (setting [4]); 1 µg/mL (≈ 2.09 µM) with P. aeruginosa ATCC 27853 (setting [5]). The ZOI with S. aureus (ATCC 29213) is listed as 10.8 +/- 0.6 cm².
For the compound daptomycin [reference compound], in the data set with S. aureus biofilm, the biofilm growth result is “completely inhibited”.
In the case of `CO[C@H]1/C=C/O[C@@]2(C)Oc3c(C)c(O)c4c(O)c(c(/C=N/N5CCN(C)CC5)c(O)c4c3C2=O)NC(=O)/C(C)=C\C=C\[C@H](C)[C@H](O)[C@@H](C)[C@@H](O)[C@@H](C)[C@H](OC(C)=O)[C@@H]1C` [rifampicin, reference compound], the “internalized bacteria compared to 0 μg/ml AMP [= 100%]” value in data set [3] (4 h) is 15%; in data set [3] (24 h), 0.0006%.
